The record followed here is US20240254115A1 (ACONDICIONAMIENTO TARRASENSE, priority 2021, published 2024).

The target of one assay is T1, human σ2/TMEM97 receptor (Homo sapiens, UniProt Q5BJF2).
T1 construct: expressed in transfected cells; host or cells: HEK-293
The assay can be described thus: Binding assay to human σ2/TMEM97 receptor. Conditions: transfected HEK-293 membranes, 10 nM [3H]-DTG, 25° C. 120 minutes; + may also stand for 1-50% inhibition at 1 or 10 μM; read-out: Binding σ-2 Ki. Summed up: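 Membranes from transfected HEK-293 cells (15 µg) were incubated with 10 nM [3H]-DTG in 50 mM Tris-HCl pH 8.0 for 120 min at 25 °C, with 10 µM haloperidol defining non-specific binding. Filtration and scintillation counting followed. Compounds tested as % inhibition at 1 or 10 µM, or at five concentrations for Ki.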

A further assay deals with T2, human σ1 receptor (Homo sapiens, UniProt Q99720).
T2 construct: expressed in transfected cells; host or cells: HEK-293
T2 sequence (Q99720 whole entry): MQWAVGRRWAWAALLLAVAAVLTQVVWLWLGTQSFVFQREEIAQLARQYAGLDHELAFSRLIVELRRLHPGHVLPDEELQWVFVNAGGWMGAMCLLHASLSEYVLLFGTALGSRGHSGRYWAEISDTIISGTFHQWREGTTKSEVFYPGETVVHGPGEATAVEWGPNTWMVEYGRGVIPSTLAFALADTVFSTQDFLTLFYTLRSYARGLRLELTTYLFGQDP
Briefly: Human σ1 receptor radioligand assay. Conditions: transfected HEK-293 membranes, 5 nM [3H](+)-pentazocine, 37° C. 120 minutes; + may also stand for 1-50% inhibition at 1 or 10 μM; read-out: Binding σ-1 Ki. An outline of the steps:
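Ki was derived from five test concentrations, or % inhibition was measured at a single 1 or 10 μM dose, against 5 nM [3H](+)-pentazocine. Incubation was 120 min at 37° C in 50 mM Tris-HCl pH 8 with 7 μg HEK-293 membranes, and 10 μM haloperidol set non-specific binding. Bound radioactivity was counted after filtration.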

T1 sequence (Q5BJF2 whole entry): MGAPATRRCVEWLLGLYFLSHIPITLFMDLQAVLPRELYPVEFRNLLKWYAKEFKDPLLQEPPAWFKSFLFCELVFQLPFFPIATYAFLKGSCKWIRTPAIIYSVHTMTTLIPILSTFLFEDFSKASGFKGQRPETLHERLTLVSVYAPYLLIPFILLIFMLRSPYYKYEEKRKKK

As to `CCc1ccc(S(=O)(=O)N2CCC3(CCN(CCC(C)(C)C)CC3)CC2)cn1` [Example 109, 3-(3,3-Dimethylbutyl)-9-((6-ethylpyridin-3-yl)sulfonyl)-3,9-diazaspiro[5.5]undecane], the Ki at human σ2/TMEM97 receptor and on human σ1 receptor was less than 0.1 µM throughout.

For `Cc1ccc(S(=O)(=O)N2CCC3(CCN(CCC(C)(C)C)CC3)CC2)cn1` [Example 110, 3-(3,3-Dimethylbutyl)-9-((6-methylpyridin-3-yl)sulfonyl)-3,9-diazaspiro[5.5]undecane], the Ki on human σ2/TMEM97 receptor and at human σ1 receptor was less than 0.1 µM each time.

Regarding `CCc1ccc(S(=O)(=O)N2CCCC3(CCN(CCC(C)(C)C)CC3)C2)cn1` [Example 111, 9-(3,3-Dimethylbutyl)-2-((6-ethylpyridin-3-yl)sulfonyl)-2,9-diazaspiro[5.5]undecane], the Ki at human σ2/TMEM97 receptor and on human σ1 receptor was less than 0.1 µM throughout.

For `CC(C)(C)CCN1CCC2(CCCN(S(=O)(=O)c3ccc(-c4ccncc4)nc3)C2)CC1` [Example 112, 2-([2,4′-Bipyridin]-5-ylsulfonyl)-9-(3,3-dimethylbutyl)-2,9-diazaspiro[5.5]undecane], the Ki on human σ2/TMEM97 receptor and at human σ1 receptor was less than 0.1 µM in each case.

In the case of `CC(C)(C)CCN1CCC2(CC1)CCN(S(=O)(=O)c1ccc(-c3ccncc3)nc1)CC2` [Example 113, 3-([2,4′-Bipyridin]-5-ylsulfonyl)-9-(3,3-dimethylbutyl)-3,9-diazaspiro[5.5]undecane], the inhibition constant (Ki) on human σ2/TMEM97 receptor was less than 0.1 µM; at human σ1 receptor, 0.1 to 0.5 µM.

For the compound `CC(C)(C)CCN1CCC2(CC1)CCN(S(=O)(=O)c1ccc(-c3ccncc3)nc1)C2` [Example 114, 2-([2,4′-Bipyridin]-5-ylsulfonyl)-8-(3,3-dimethylbutyl)-2,8-diazaspiro[4.5]decane], the inhibitory constant (Ki) on human σ2/TMEM97 receptor and at human σ1 receptor was less than 0.1 µM in each case.

Consider `CC(C)(C)CCN1CCCC2(CCN(S(=O)(=O)c3ccc(-c4ccncc4)nc3)CC2)C1` [Example 115, 9-([2,4′-Bipyridin]-5-ylsulfonyl)-2-(3,3-dimethylbutyl)-2,9-diazaspiro[5.5]undecane], for which the Ki at human σ2/TMEM97 receptor and on human σ1 receptor was less than 0.1 µM each time.

`CC(C)(C)CCN1CCC2(CCCN(S(=O)(=O)c3ccc(C4CCOCC4)nc3)C2)CC1` [Example 116, 9-(3,3-Dimethylbutyl)-2-((6-(tetrahydro-2H-pyran-4-yl)pyridin-3-yl)sulfonyl)-2,9-diazaspiro[5.5]undecane]: the Ki on human σ2/TMEM97 receptor and at human σ1 receptor was less than 0.1 µM in each case.

Regarding `CC(C)(C)CCN1CCC2(CC1)CCN(S(=O)(=O)c1ccc(C3CCOCC3)nc1)CC2` [Example 117, 3-(3,3-Dimethylbutyl)-9-((6-(tetrahydro-2H-pyran-4-yl)pyridin-3-yl)sulfonyl)-3,9-diazaspiro[5.5]undecane], the values for the Ki at human σ2/TMEM97 receptor and on human σ1 receptor were less than 0.1 µM and 0.1 to 0.5 µM, respectively.

In the case of `CC(C)(C)CCN1CCC2(CCCN(S(=O)(=O)c3ccc(N4CCS(=O)(=O)CC4)nc3)C2)CC1` [Example 118, 4-(5-((9-(3,3-Dimethylbutyl)-2,9-diazaspiro[5.5]undecan-2-yl)sulfonyl)pyridin-2-yl)thiomorpholine 1,1-dioxide], the figures for the inhibition constant (Ki) on human σ2/TMEM97 receptor and on human σ1 receptor were less than 0.1 µM and 0.1 to 0.5 µM, respectively.

On to `CN(Cc1ccc(F)cc1)[C@H]1CC[C@H](NS(=O)(=O)c2ccc(N3CCOCC3)cn2)CC1` [Example 119, N-((1r,4r)-4-((4-Fluoro-benzyl)(methyl)amino)cyclo-hexyl)-5-morpholinopyridine-2-sulfonamide], for which the Ki at human σ2/TMEM97 receptor is less than 0.1 µM; on human σ1 receptor, more than 1 µM.

For the compound `CC(C)(C)CCN1CCC2(CCCN(S(=O)(=O)c3ccc(N4CCOCC4=O)nc3)C2)CC1` [Example 120, 4-(5-((9-(3,3-Dimethylbutyl)-2,9-diazaspiro[5.5]undecan-2-yl)sulfonyl)pyridin-2-yl)morpholin-3-one], the Ki is less than 0.1 µM on human σ2/TMEM97 receptor and 0.1 to 0.5 µM on human σ1 receptor.

Take `CC(C)(C)CCN1CCC2(CCCN(S(=O)(=O)c3ccc(N4CCCC4=O)nc3)C2)CC1` [Example 121, 1-(5-((9-(3,3-Dimethylbutyl)-2,9-diazaspiro[5.5]undecan-2-yl)sulfonyl)pyridin-2-yl)pyrrolidin-2-one]: the inhibition constant Ki at human σ2/TMEM97 receptor and at human σ1 receptor was less than 0.1 µM each time.

With `CC(C)(C)CCN1CCC2(CCCN(S(=O)(=O)c3ccc(N4CCCCC4=O)nc3)C2)CC1` [Example 122, 1-(5-((9-(3,3-Dimethylbutyl)-2,9-diazaspiro[5.5]undecan-2-yl)sulfonyl)pyridin-2-yl)piperidin-2-one], the Ki on human σ2/TMEM97 receptor was less than 0.1 µM; at human σ1 receptor, 0.1 to 0.5 µM.

For the compound `CC(C)(C)CCN1CCC2(CCCN(S(=O)(=O)c3ccc(N4CCOC4=O)nc3)C2)CC1` [Example 123, 3-(5-((9-(3,3-Dimethylbutyl)-2,9-diazaspiro[5.5]undecan-2-yl)sulfonyl)pyridin-2-yl)oxazolidin-2-one], the inhibitory constant (Ki) at human σ2/TMEM97 receptor was less than 0.1 µM; at human σ1 receptor, 0.1 to 0.5 µM.

`CN(CC(C)(C)C)C1CCN(S(=O)(=O)c2ccc(N3CCOC3=O)nc2)CC1` [Example 124, 3-(5-((4-(Methyl(neopentyl)amino)pi-peridin-1-yl)sulfonyl)pyridin-2-yl)oxazolidin-2-one]: the Ki is more than 1 µM at human σ2/TMEM97 receptor and 0.1 to 0.5 µM on human σ1 receptor.

Regarding `N#Cc1ccc(CN2CCC3(CCCN(S(=O)(=O)c4ccc(N5CCOC5=O)nc4)C3)CC2)c(F)c1` [Example 125, 3-Fluoro-4-((2-((6-(2-oxooxazolidin-3-yl)pyridin-3-yl)sulfonyl)-2,9-diazaspiro[5.5]undecan-9-yl)methyl)benzonitrile], the inhibition constant Ki on human σ2/TMEM97 receptor and at human σ1 receptor was less than 0.1 µM in each case.

`O=C1CCCN1c1ccc(S(=O)(=O)N2CCCC3(CCN(CC4CCOCC4)CC3)C2)cn1` [Example 126, 1-(5-((9-((Tetrahydro-2H-pyran-4-yl)methyl)-2,9-diazaspiro[5.5]undecan-2-yl)sulfonyl)pyridin-2-yl)pyrrolidin-2-one]: the inhibitory constant (Ki) on human σ2/TMEM97 receptor and at human σ1 receptor was less than 0.1 µM each time.

For the compound `O=C1OCCN1c1ccc(S(=O)(=O)N2CCCC3(CCN(CC4CCOCC4)CC3)C2)nc1` [Example 127, 3-(6-((9-((Tetrahydro-2H-pyran-4-yl)methyl)-2,9-diazaspiro[5.5]undecan-2-yl)sulfonyl)pyridin-3-yl)oxazolidin-2-one], the inhibition constant (Ki) on human σ2/TMEM97 receptor and at human σ1 receptor was less than 0.1 µM in each case.

Regarding `O=C1OCCN1c1ccc(S(=O)(=O)N2CCC3(CCN(CC4CCOCC4)CC3)CC2)cn1` [Example 128, 3-(5-((9-((Tetrahydro-2H-pyran-4-yl)methyl)-3,9-diazaspiro[5.5]undecan-3-yl)sulfonyl)pyridin-2-yl)oxazolidin-2-one], the Ki at human σ2/TMEM97 receptor was less than 0.1 µM; on human σ1 receptor, 0.5 to 1 µM.

Regarding `CN(CC1CCOCC1)C1CCN(S(=O)(=O)c2ccc(N3CCOC3=O)nc2)CC1` [Example 129, 3-(5-((4-(Methyl((tetrahydro-2H-pyran-4-yl)methyl)amino)piperidin-1-yl)sulfonyl)pyridin-2-yl)oxazolidin-2-one], the inhibition constant Ki on human σ2/TMEM97 receptor and on human σ1 receptor was 0.1 to 0.5 µM in each case.

On to `O=S(=O)(c1ccc(N2CCC(F)(F)CC2)nc1)N1CCCC2(CCN(Cc3ccccc3)CC2)C1` [Example 130, 9-Benzyl-2-((6-(4,4-difluoropiperidin-1-yl)pyridin-3-yl)sulfonyl)-2,9-diazaspiro[5.5]undecane], for which the Ki on human σ2/TMEM97 receptor and at human σ1 receptor was less than 0.1 µM in each case.
